In patent EP4692114A1, “CALCITONIN ANALOGUE, AND DERIVATIVE THEREOF AND USE THEREOF” (Hangzhou Sciwind Biosciences Co., Ltd., priority 2023, dated 2024):
*1 amine or outer side, *2 acyl side, *3 side chain or, on linkers, in order; H or OH if unused. Where a SMILES comes first, the peptide text is derived from it. The star is where a group is joined. C20 diacid = O=C(O)CCCCCCCCCCCCCCCCCCC(=O)*; γGlu = O=C(O)[C@H](CCC(=O)[*:2])N[*:1]

What was measured:
[1] = background statement; cited from earlier work
[2] = Heat accelerated stability assay under a neutral condition; assay type: physicochemical; details: pH about 7.4, 40°C
Summary of the method: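 Peptide (1 mg/mL) with sodium dihydrogen phosphate (1.42 mg/mL) in water, pH ~7.4, was sterile-filtered and stored at 40 °C, sampled on days 7 and 26. After centrifugation, concentration and purity (target/total peak area) were measured by reversed-phase HPLC at 214 and 280 nm, water/0.05% TFA to acetonitrile gradient, 25 °C column.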

[3] = target: T1, human amylin receptors (Homo sapiens, UniProt O60896+P30988); experiment: Luciferase assay of amylin (amylin receptor/CRE-luc cell line); assay type: cell-based; details: stably transfected amylin receptor/CRE-luc CHO cells (CHO-K1/Gal5/AMY3), 24 hours incubation, luciferase readout;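 further: agonist potency from luminescence of cAMP response element-driven luciferase, EC50 derived from a standard curve of signal versus compound concentration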
T1 sequence (P30988 25-474): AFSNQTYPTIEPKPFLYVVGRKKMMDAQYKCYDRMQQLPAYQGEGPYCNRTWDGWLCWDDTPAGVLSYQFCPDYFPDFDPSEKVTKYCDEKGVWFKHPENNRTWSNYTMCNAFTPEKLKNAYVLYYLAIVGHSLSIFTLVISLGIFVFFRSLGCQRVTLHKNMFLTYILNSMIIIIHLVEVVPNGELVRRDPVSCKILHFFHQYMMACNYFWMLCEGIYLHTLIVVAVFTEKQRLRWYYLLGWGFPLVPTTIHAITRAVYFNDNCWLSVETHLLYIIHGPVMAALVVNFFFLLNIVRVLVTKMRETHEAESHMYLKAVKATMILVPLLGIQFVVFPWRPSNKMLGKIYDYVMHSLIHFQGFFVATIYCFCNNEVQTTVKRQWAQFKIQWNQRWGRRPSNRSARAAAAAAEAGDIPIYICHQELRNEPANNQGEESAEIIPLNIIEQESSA
T1 sequence (O60896 24-148 partner): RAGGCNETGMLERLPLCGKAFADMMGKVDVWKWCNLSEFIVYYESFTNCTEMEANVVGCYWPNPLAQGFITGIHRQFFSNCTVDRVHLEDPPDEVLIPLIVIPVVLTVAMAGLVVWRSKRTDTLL
Source text: The objective of this assay is to test the activity or potency of calcitonin analogues or derivatives on human amylin receptors in vitro using a luciferase assay.
Using the standard protocol, CHO-K1/Gal5/AMY3 cells (purchased from GenScript, with the calcitonin receptor and the receptor activity modifying peptide (RAMP) constructed already) were transfected with a plasmid containing a luciferase expression cassette driven by multiple copies of cAMP response elements (CREs). The cells were cultured in an F12 medium containing 200 ug/mL Zeocin, 2 ug/mL puromycin, 100 ug/mL hygromycin, and 400 ug/mL G418 to afford a stably transfected amylin receptor/CRE-luc cell line.
To each well of a white 96-well plate was added 50 µL of the tested sample solution at a respective concentration.
The stably transfected amylin receptor/CRE-luc CHO cells were resuspended in the growth medium at a certain density, and 50 µL of the cell suspension was added at a density of about 20000 cells per well to the white 96-well plate containing the tested sample solution. After incubation of 24 hours at 37°C and 5% CO2, 100 µL of a Luciferase substrate was added to each well, incubated for 3 minutes, and finally was tested for luminescence on SpectraMax L (Molecular Devices) with the software SoftMax Pro 7.0.3 GxP. A standard curve was plotted using the fluorescent intensities for calculation of EC50.

[4] = Heat accelerated stability assay for compatibility testing (M8 with M51); assay type: physicochemical; details: M8 1 mg/ml with M51 1 mg/ml, pH about 7.4, one-month heat accelerated assay, without and with excipients (phenol, 1,2-dihydroxypropane)
Protocol: The calcitonin analogue M8 (1 mg/ml), the GLP-1 receptor agonist M51 (1 mg/ml), and sodium dihydrogen phosphate (1.42 mg/ml) were mixed and dissolved in ultrapure water, and 5.5 mg/ml phenol and 14 mg/ml 1,2-dihydroxypropane were further added for the testing group with excipients. After pH was adjusted to about 7.4 with hydrochloric acid/sodium hydroxide, accelerated stability assays were performed according to the method of Example 3. […] Thus, they had the potential to be developed as a co-formulation.

[5] = Study of weight change and food consumption in rats; assay type: in vivo, SD (Sprague Dawley) rats; details: SD rats, subcutaneous, 10 nmol/kg
Source text: SD (Sprague Dawley) rats weighing 200-250 g were used for this study. The rats were received at least 10-14 days before the study began such that they could accommodate to the experimental environment. After arrival, they were exposed to a reversed light/dark cycle (i.e., lights switched off in daytime and on in nighttime) for two weeks and were individually housed for the first week so as to ensure high data accuracy and test sensitivity. Throughout the acclimation and experiment period, the rats had free access to food and water. 5-8 rats were assigned to each testing group for the derivatives and were subcutaneously administered the derivatives at a dose of 10 nmol/kg or a vehicle, and the dosing timepoint was recorded for each group. After dosing, the rats were put back into cages where they were housed and could have access to food and water. Food consumption and weight change of the rats were recorded online or manually every 24 hours.

Row | Changes in characteristics or properties, 0d ([2]; 1 mg/mL, phosphate, 0d) | Changes in characteristics or properties, 7d ([2]; 1 mg/mL, phosphate, 7d) | Characteristics or properties on Day 26 ([2]; 1 mg/mL, phosphate, Day 26) | Reversed phase chromatography 26d change ([2]; Table 8, purity change, 26d) [%] | Concentration change on Day 26 as compared to Day 0 ([2]; Day 26 vs Day 0) | EC50 [3] [nM] | Change in the spectra of reversed phase chromatography (compatibility) [4] | SMILES | half-life [1] | Reversed phase chromatography 7d change ([2]; Table 8, purity change, 7d) | Purity Change% (7d-0d) ([2]; purity from reversed phase chromatography-214 nm, Day 7 vs Day 0) | Effect on reducing food intake ([5]; accumulated food intake recorded every 24 hours (FIGs. 7 and 9)) | Effect on reducing body weight ([5]; recorded every 24 hours (FIGs. 6 and 8))
1 |  |  |  |  |  |  |  | CC(C)C[C@H](NC(=O)[C@H](CCCCN)NC(=O)CNC(=O)[C@H](CC(C)C)NC(=O)[C@@H](NC(=O)[C@@H]1CSSC[C@H](N)C(=O)N[C@@H](CO)C(=O)N[C@@H](CC(N)=O)C(=O)N[C@@H](CC(C)C)C(=O)N[C@@H](CO)C(=O)N[C@@H]([C@@H](C)O)C(=O)N1)C(C)C)C(=O)N[C@@H](CO)C(=O)N[C@@H](CCC(N)=O)C(=O)N[C@@H](CCC(=O)O)C(=O)N[C@@H](CC(C)C)C(=O)N[C@@H](Cc1c[nH]cn1)C(=O)N[C@@H](CCCCN)C(=O)N[C@@H](CC(C)C)C(=O)N[C@@H](CCC(N)=O)C(=O)N[C@H](C(=O)N[C@@H](Cc1ccc(O)cc1)C(=O)N1CCC[C@H]1C(=O)N[C@@H](CCCNC(=N)N)C(=O)N[C@H](C(=O)N[C@@H](CC(N)=O)C(=O)N[C@H](C(=O)NCC(=O)N[C@@H](CO)C(=O)NCC(=O)N[C@H](C(=O)N1CCC[C@H]1C(N)=O)[C@@H](C)O)[C@@H](C)O)[C@@H](C)O)[C@@H](C)O [D2, salmon calcitonin] | less than two hours |  |  |  | 
2 | Clear | Clear | clear solution | -0.12 | less than 2% | 0.017 | only a little change | CC(C)C[C@H](NC(=O)[C@H](CCCNC(=N)N)NC(=O)CNC(=O)[C@H](CC(C)C)NC(=O)[C@@H](NC(=O)[C@H](C)NC(=O)[C@@H](NC(=O)[C@H](CO)NC(=O)[C@H](CC(C)C)NC(=O)[C@H](CCC(N)=O)NC(=O)[C@H](CO)NC(=O)[C@H](C)NC(=O)CC[C@H](NC(=O)CCCCCCCCCCCCCCCCCCC(=O)O)C(=O)O)[C@@H](C)O)C(C)C)C(=O)N[C@@H](CO)C(=O)N[C@@H](CC(=O)O)C(=O)N[C@@H](CCC(=O)O)C(=O)N[C@@H](CC(C)C)C(=O)N[C@@H](Cc1c[nH]cn1)C(=O)N[C@@H](CCCNC(=N)N)C(=O)N[C@@H](CC(C)C)C(=O)N[C@@H](CCC(N)=O)C(=O)N[C@@H](CC(=O)O)C(=O)N[C@@H](Cc1ccc(O)cc1)C(=O)N1CCC[C@H]1C(=O)N[C@@H](CCCNC(=N)N)C(=O)N[C@H](C(=O)N[C@@H](CC(=O)O)C(=O)N[C@H](C(=O)NCC(=O)N[C@@H](CO)C(=O)NCC(=O)N[C@@H](CO)C(=O)N1CCC[C@H]1C(N)=O)C(C)C)[C@@H](C)O [M8] ({C20 diacid-γGlu}-ASQLSTAVLGRLSDELHRLQDYPRTDVGSGSP-NH2) |  | No change (a decrease of less than 1% from the initial value to the detected content is denoted as "no change") | No change (a decrease of less than 1% from the initial value to the detected content is denoted as "no change") | prominent effect | prominent effect
